From ChEMBL document CHEMBL1153460, “Potent aza-peptide derived inhibitors of HCV NS3 protease” (Bioorg Med Chem Lett, 2009)
Active and inactive are the calls of the source. The calls are words filed in the database; no cut-off is given here. Starred links: 1 amine or outer side, 2 acyl side, 3 side chain; linkers in the order of their positions; H or OH if unused. Non-standard residues stand in square brackets, D forms with d. Residues, ends and D or L forms follow the SMILES beside them. *: point of attachment. Pro(4R-OPh) = O=C(O)[C@@H]1C[C@@H](Oc2ccccc2)CN1; NH(1R-phenylethyl) = C[C@@H](N*)c1ccccc1; azaNva = CCCN(N[*:1])C(=O)[*:2]; Aad = N[C@@H](CCCC(=O)O)C(=O)O; Tle = CC(C)(C)[C@H](N)C(=O)O

Columns and labels:
[1] = Selectivity ratio, Ki for human neutrophil elastase to Ki for HCV NS3 protease
Hepatitis C virus = test: Antiviral activity against HCV by replicon-based cellular assay; type: functional, Hepacivirus hominis
[2] = Inhibition of HCV NS3 protease by continuous spectrophotometric assay; design: species or system Hepacivirus hominis

Compound	Ratio Ki [1]	EC90 (Hepatitis C virus) [nM]	Ki [2] [nM]	EC90 (Hepatitis C virus; Hepacivirus hominis)
CCCN(NC(=O)[C@@H]1C[C@@H](Oc2ccccc2)CN1C(=O)[C@@H](NC(=O)[C@@H](NC(=O)[C@H](CCCC(=O)O)NC(=O)[C@H](CCCC(=O)O)NC(C)=O)C(C)C)C(C)(C)C)C(=O)N[C@H](C)c1ccccc1 (Ac-[Aad][Aad]V[Tle][Pro(4R-OPh)][azaNva]-{NH(1R-phenylethyl)})			78	
CCCN(NC(=O)[C@@H]1[C@@H]2[C@H](CN1C(=O)[C@@H](NC(=O)N[C@H](CN(C)S(=O)(=O)c1cccnc1)C(C)(C)C)C1CCCCC1)C2(C)C)C(=O)N[C@H](C)c1ccccc1			230	inactive
CCCN(NC(=O)[C@@H]1[C@@H]2[C@H](CN1C(=O)[C@@H](NC(=O)N[C@H](CN1C(=O)C3CCC(C3)C1=O)C(C)(C)C)C(C)(C)C)C2(C)C)C(C)=O			22000	inactive
CCCN(NC(=O)[C@@H]1[C@@H]2[C@H](CN1C(=O)[C@@H](NC(=O)N[C@H](CN1C(=O)C3CCC(C3)C1=O)C(C)(C)C)C(C)(C)C)C2(C)C)C(=O)NC(C)(C)C		8000	1600	
CCCN(NC(=O)[C@@H]1[C@@H]2[C@H](CN1C(=O)[C@@H](NC(=O)N[C@H](CN1C(=O)C3CCC(C3)C1=O)C(C)(C)C)C(C)(C)C)C2(C)C)C(=O)OC(C)(C)C		24000	3100	
CCCN(NC(=O)[C@@H]1[C@@H]2[C@H](CN1C(=O)[C@@H](NC(=O)N[C@H](CN1C(=O)C3CCC(C3)C1=O)C(C)(C)C)C(C)(C)C)C2(C)C)C(=O)NC1CCCCC1		16000	1300	
CCCN(NC(=O)[C@@H]1[C@@H]2[C@H](CN1C(=O)[C@@H](NC(=O)N[C@H](CN1C(=O)C3CCC(C3)C1=O)C(C)(C)C)C(C)(C)C)C2(C)C)C(=O)c1ccccc1			52000	inactive
CC(C)(C)NC(=O)N[C@H](C(=O)N1C[C@H]2[C@@H]([C@H]1C(=O)NC(CC1CCC1)C(=O)C(N)=O)C2(C)C)C(C)(C)C (stereo not given in full) [BOCEPREVIR]	2200	350	14	
CCCN(NC(=O)[C@@H]1[C@@H]2[C@H](CN1C(=O)[C@@H](NC(=O)N[C@H](CN1C(=O)C3CCC(C3)C1=O)C(C)(C)C)C(C)(C)C)C2(C)C)C(=O)Nc1ccccc1		2400	950	
CCCN(NC(=O)[C@@H]1[C@@H]2[C@H](CN1C(=O)[C@@H](NC(=O)N[C@H](CN1C(=O)C3CCC(C3)C1=O)C(C)(C)C)C(C)(C)C)C2(C)C)C(=O)NC1CC1		6000	750	
CCCN(NC(=O)[C@@H]1[C@@H]2[C@H](CN1C(=O)[C@@H](NC(=O)N[C@H](CN1C(=O)C3CCC(C3)C1=O)C(C)(C)C)C(C)(C)C)C2(C)C)C(=O)CCc1ccccc1		3500	720	
CCCN(NC(=O)[C@@H]1[C@@H]2[C@H](CN1C(=O)[C@@H](NC(=O)N[C@H](CN1C(=O)C3CCC(C3)C1=O)C(C)(C)C)C(C)(C)C)C2(C)C)C(=O)C1CC1		15000	3000	

Other lines, results leading:

Ratio Ki [1]	EC90 (Hepatitis C virus) [nM]	Ki [2] [nM]	EC90 (Hepatitis C virus; Hepacivirus hominis)	Compound
960	300	64		CCCN(NC(=O)[C@@H]1[C@@H]2[C@H](CN1C(=O)[C@@H](NC(=O)N[C@H](CN1C(=O)CC(C)(C)CC1=O)C(C)(C)C)C(C)(C)C)C2(C)C)C(=O)N[C@H](C)c1ccccc1
		200	inactive	C[C@@H](NC(=O)N(CC1CC1)NC(=O)[C@@H]1[C@@H]2[C@H](CN1C(=O)[C@@H](NC(=O)N[C@H](CN1C(=O)CC(C)(C)CC1=O)C(C)(C)C)C(C)(C)C)C2(C)C)c1ccccc1
	700	110		CCCN(NC(=O)[C@@H]1[C@@H]2[C@H](CN1C(=O)[C@@H](NC(=O)N[C@H](CN(C)S(C)(=O)=O)C(C)(C)C)C(C)(C)C)C2(C)C)C(=O)N[C@H](C)c1ccccc1
	250	32		CCCN(NC(=O)[C@@H]1[C@@H]2[C@H](CN1C(=O)[C@@H](NC(=O)N[C@H](CN1C(=O)C3CCC(C3)C1=O)C(C)(C)C)C(C)(C)C)C2(C)C)C(=O)N[C@H](C)c1ccccc1
	1100	250		C[C@@H](NC(=O)N(CC1CC1)NC(=O)[C@@H]1[C@@H]2[C@H](CN1C(=O)[C@@H](NC(=O)N[C@H](CN1C(=O)C3CCC(C3)C1=O)C(C)(C)C)C(C)(C)C)C2(C)C)c1ccccc1
